How the values were obtained:
[1] = test system: OVA allergen-induced asthma in mice; assay: Ovalbumin-induced asthma model; assay type: in vivo; details: 25 mg/kg nebulized 30 min after each OVA challenge
Protocol: Allergen-induced asthma was produced in mice by initial sensitization by intraperitoneal (i.p.) injection of OVA on days 0 and 7 and challenge by intratracheal injection of OVA on even-numbered days 14 through 22. Thirty minutes following each OVA challenge, PB141 (25 mg/kg) or vehicle (saline) was nebulized and delivered to cage air via a micropump nebulizer. Twenty-four hours after the last challenge and nebulization; airway hyperresponsiveness to increasing concentrations of inhaled methacholine was determined by the forced oscillation (flexiVent) method. (A) Airway resistance. (B) Airway elastance. Data are representative of one of two independent experiments with n=6-8 mice per group.
Allergen induced asthma was produced in mice by initial sensitization by intraperitoneal (i.p.) injection of OVA on days 0 and 7 and challenge by intratracheal injection of OVA on even-numbered days 14 through 22. Thirty minutes after each OVA challenge, PB141 (25 mg/kg) or vehicle (saline) was nebulized and delivered to cage air via a micropump nebulizer. Twenty-four hours following the last challenge and nebulization, BAL fluid, plasma, and lung samples were obtained. (A) Total and differential cell count in BAL fluid. (B) Microscopic examination following staining of BAL fluid. (C) H2O2 production, (D) Protein concentration in BAL fluid. Data are representative of one of two independent experiments with n=7-10 mice per group; *** p<0.001.
Allergen-induced asthma was produced in mice by initial sensitization by intraperitoneal (i.p.) injection of OVA on days 0 and 7 and challenge by intracheal injection of OVA on even-numbered days 14 through 22. Thirty minutes after each OVA challenge, PB141 (25 mg/kg) or vehicle (saline) was nebulized and delivered to cage air via a micropump nebulizer. Twenty-four hours following the last challenge and nebulization lung samples were obtained. The lung was examined histologically following (A) H&E staining, (B) trichrome staining, and (C) periodic acid Schiffs (PAS) staining. Data are representative of one of two independent experiments with n=7-10 mice per group.
Allergen induced asthma was produced in mice by initial sensitization by intraperitoneal injection of OVA on days 0 and 7 and challenge by intratracheal injection of OVA on even-numbered days 14 through 22. […] Twenty-four hours following the last challenge and nebulization. airway hyperresponsiveness to methacholine challenge was measured noninvasively by whole body plethysmography (WBP; Buxco Research Systems, Wilmington, N.C.) and, invasively by computer-controlled ventilator (flexiVent; SCIREQ Inc., Montreal, Canada). Cellular Infiltration into the airspace was assessed by measuring myeloperoxidase activity in the lung and the number of polymorphonuclear neutrophils and eosinophils in bronchoalveolar lavage fluid (BALF). Lung inflammation was assessed by vascular permeability, edema, and cytokine generation. Anti-OVA IgE concentrations in the serum were measured using an ELISA kit (MD Bioproducts, St. Paul, Minn.). Lung histology sections were assessed by morphometry, with May-Grünwald-Giemsa or Periodic acid-Schiff (PAS) staining used for detection of mucopolysaccharide accumulation, Sirius Red or Masson's trichrome staining for detection of collagen deposition, and hematoxylin and eosin (H&E) staining for assessment of inflammation. Lung collagen content was determined by quantifying soluble collagen with the Sircol Collagen Assay Kit (Biocolor).

[2] = Nebulization of PB141: aerosol droplet size by Andersen cascade impactor; assay type: physicochemical; details: dissolved in water or PBS; micropump nebulizer, 10 L of air/min
Protocol: PB141 was dissolved in water or different concentrations of PBS and the solutions were aerosolized using a micropump nebulizer (Buxco Research Systems, Wilmington, N.C.) flowing at 10 L of air/min. Aerosol droplet size was measured with an Andersen cascade impactor. (A) Distribution of PB141 aerosol droplet sizes. (B) The concentration of PB141 during a 30 min nebulization period was measured by collecting samples during nebulization and analyzing by spectrophotometer in two independent experiments.
PB141 was dissolved in water or different concentrations of PBS and aerosols were generated using a micropump nebulizer (Buxco Research Systems, Wilmington, N.C.) flowing at 10 L of air/min. Aerosol droplet size was measured with an Andersen cascade impactor. The concentration of PB141 during a 30-min nebulization period was measured by collecting samples during nebulization and analyzing them by spectrophotometer in […]. […] Nebulization was optimal for a solution of PB141 in 2% saline, although a formulation in pure water was also effective.

[3] = test system: NNK-induced lung tumorigenesis in A/J mice; assay: NNK-induced lung tumorigenesis in A/J mice; assay type: in vivo; details: 25 mg/kg nebulized 30 min/day for eight weeks
Protocol: Induction of lung tumorigenesis by intraperitoneal (i.p.) injection on days 1, 3, and 5 with 50 mg/kg of NNK dissolved in saline was followed by nebulization of PB141 (25 mg/kg) or vehicle (saline) and delivery to cage air via a micropump nebulizer. After 8 weeks the lung was examined histologically following H&E staining. (A) Number of lung lesions. (B) Histology showing lung tumor incidence and burden. Data are representative of one of two independent experiments with n=9-11 mice per group.
A/J mice were injected intraperitoneally on days 1, 3, and 5 with 50 mg/kg of 4-methylnitrosamino-1-(3-pyridyl)-1-butanone (NNK; Chemsyn Science Laboratories, Lenexa, Kans.) dissolved in saline. The mice were then held for 8 weeks to allow development of preinvasive lesions: alveolar hyperplasias and adenomas. […]
Mice were euthanized following the eight-week treatment period. […] Lung lesions were quantified by determining the incidence and prevalence of pulmonary pleural surface tumors, counting both the right and left lungs of each mouse. […] Hyperplastic and neoplastic lesions of the lungs were scored according to the International Classification of Rodent Tumors in 6 or 7 sections per lung. Sections were further assessed for morphometry and Ki67 immunohistochemistry.

[4] = test system: human lung adenocarcinoma cell lines (NCI-H661, NCI-H441 and NCIH1299); assay: Proliferation (BrdU) and apoptosis (TUNEL) of NNK-treated lung adenocarcinoma cells; assay type: cell-based; details: pretreated 1 to 5 μM, then 1 μM NNK; data not shown
Protocol: For further in vitro studies, human lung adenocarcinoma cell lines (NCI-H661, NCI-H441 and NCIH1299) were obtained from American Type Culture Collection. Cells were treated with 1 μM NNK for 1 hr. In some experiments cells were pretreated with 1 to 5 μM PB141 before treatment with NNK. Cell proliferation was assessed by BrdU proliferation kit (Roche Applied Science). Apoptosis was assessed by TUNEL assay.

## CC(=O)N[C@@H](CSC(CC(=O)CC(SC[C@H](NC(C)=O)C(=O)O)c1cnccn1)c1cnccn1)C(=O)O (stereo partly drawn) [PB141]
[1]
  Airway hyperresponsiveness to methacholine: significantly suppressed
  Airway remodeling: lessening
  Expression of cytokines, chemokines, and IgE in BALF and serum: attenuated
  Infiltration of inflammatory cells into the airspace and lung: suppressed
  Mucus accumulation: lessening
[2]
  Aerosol droplet size: 1-2 μm
[3]
  Inhibition of tumor progression, premalignant lung cancer, and cell proliferation: ~40%
[4]
  Apoptosis (TUNEL): induced apoptosis
  Cell proliferation (BrdU): significantly decreased

From patent US9862690B2, “Treatment of pulmonary and other conditions” (University of Pittsburgh—of the Commonwealth System of …, priority 2013, dated 2018)
